The series concerns Orius laevigatus. The series is described as follows: Safety to beneficial species: test on Orius laevigatus on treated french bean leaf discs. Format: in vivo. As to conditions: Orius laevigatus adults; for Corrected Mortality (%) 2 DAI: 2 days after infestation; for Corrected Mortality (%) 4 DAI: 4 days after infestation. As to the method: Phaseolus vulgaris var. Fulvio (french bean) plants were reduced to one leaf. With the leaves held in a horizontal position, a track sprayer was used to treat the plants at a rate corresponding to […]. Once dry, leaf discs were collected from the plants and placed treated side up in petri dishes containing 1% water agar.
A paper triangle was added for shelter, and a suitable amount of Ephestia eggs were added as a food supply. Five (5) Orius laevigatus (predatory bug, Syngenta Bioline) adults were added and the dishes closed with a cotton filter and perforated plastic lid. The dishes were incubated in a climate chamber at 25° C., 75% relative humidity, 16:8 h light/dark regime.
Six replicates were provided for each treatment and concentration level. The number of living and dead Orius laevigatus were counted two and four days after infestation (DAI). At the day two evaluation the food supply was replenished.

Each structure is given as a SMILES string.

As to `C#CCN1[C@@H]2CC[C@H]1C[C@](C#N)(c1cncc(C#N)c1)C2` [Compound 1.074, (1S,3S,5R)-3-(5-cyano-pyridin-3-yl)-8-prop-2-ynyl-8-aza-bicyclo[3.2.1]octane-3-carbonitrile], the “Corrected Mortality (%) 2 DAI” value (50 ppm) stood at 4%, the “Corrected Mortality (%) 2 DAI” value (100 ppm) was 0% and the “Corrected Mortality (%) 2 DAI” value (200 ppm) was determined as 7%. The “Corrected Mortality (%) 4 DAI” value was 4% (50 ppm), 0% (100 ppm) and 39% (200 ppm).
With `N#Cc1cncc([C@]2(C#N)C[C@H]3CC[C@@H](C2)N3CC(F)(F)F)c1` [Compound 1.085], the “Corrected Mortality (%) 2 DAI” value is 0% (50 ppm), 0% (100 ppm) and 0% (200 ppm). For the same compound, the “Corrected Mortality (%) 4 DAI” value turned out to be 9% (50 ppm), 9% (100 ppm) and 22% (200 ppm).
For `O=[N+]([O-])NC1=NCCN1Cc1ccc(Cl)nc1` [Imidacloprid, reference compound], the “Corrected Mortality (%) 2 DAI” value (50 ppm) turned out to be 11%, the “Corrected Mortality (%) 2 DAI” value (100 ppm) amounted to 43% and the “Corrected Mortality (%) 2 DAI” value (200 ppm) is on record as 75%. Further, the “Corrected Mortality (%) 4 DAI” value was 30% (50 ppm), 65% (100 ppm) and 100% (200 ppm).
